Experimental data from ChEMBL document CHEMBL3045901, “Aryldiones incorporating a [1,4,5]oxadiazepane ring. Part 2: chemistry and biology of the cereal herbicide pinoxaden” (Pest Manag Sci, 2011).
Converted amounts (≈) assume the structure as drawn.

What was measured:
[1] = test system: Alopecurus myosuroides; assay: Herbicidal activity against Alopecurus myosuroides assessed as weed control at 30 g/ha under greenhouse measured after 21 days by post-emergence test; format: functional
[2] = test system: Lolium perenne; assay: Herbicidal activity against Lolium perenne (perennial ryegrass) assessed as weed control at 30 g/ha under greenhouse measured after 21 days by post-emergence test; format: functional
[3] = test system: Hordeum vulgare; assay: Herbicidal activity against Hordeum vulgare (barley) assessed as weed control at 30 g/ha under greenhouse measured after 21 days by post-emergence test; format: functional
[4] = test system: Setaria faberi; assay: Herbicidal activity against Setaria faberi (Giant Foxtail) assessed as weed control at 30 g/ha under greenhouse measured after 21 days by post-emergence test; format: functional
[5] = test system: Triticum aestivum; assay: Herbicidal activity against Triticum aestivum (wheat) assessed as weed control at 30 g/ha under greenhouse measured after 21 days by post-emergence test; format: functional
[6] = test system: Avena fatua; assay: Herbicidal activity against Avena fatua assessed as weed control at 30 g/ha under greenhouse measured after 21 days by post-emergence test; format: functional
[7] = Solubility in water at pH7 at 20 degC; format: physicochemical; conditions: pH 7
[8] = Lipophilicity, log P of the compound at pH7 at 20 degC; format: physicochemical; conditions: buffer, pH 7
[9] = Dissociation constant, pKa of the compound; format: physicochemical
[10] = Aqueous hydrolysis of the compound at pH 9 at 20 degC; format: physicochemical; conditions: aqueous solution, read-out: DT50 (converted)
[11] = Lipophilicity, log P of the compound at pH5 at 20 degC; format: physicochemical; conditions: buffer, pH 5
[12] = Aqueous hydrolysis of the compound at pH 5 at 20 degC; format: physicochemical; conditions: aqueous solution, read-out: DT50 (converted)
[13] = Solubility in water at pH5 at 20 degC; format: physicochemical; conditions: pH 5
[14] = Aqueous hydrolysis of the compound at pH 7 at 20 degC; format: physicochemical; conditions: aqueous solution, read-out: DT50 (converted)
[15] = Aqueous hydrolysis of the compound at pH 4 at 20 degC; format: physicochemical; conditions: aqueous solution, read-out: DT50 (converted)

SMILES	Activity [1] [%]	Activity [2] [%]	Activity [3] [%]	Activity [4] [%]	Activity [5] [%]	Activity [6] [%]	solubility [7] [mg/mL]	logD [8]	pKa [9]	half-life [10] [h]	logD [11]	half-life [12] [h]	solubility [13] [mg/mL]	half-life [14] [h]	half-life [15] [h]
Cc1cc(C)c(C2C(=O)N3CCOCCN3C2=O)c(C)c1	10	80	0	50	0	60									
COc1cc(C)cc(Br)c1C1C(=O)N2CCOCCN2C1=O	20	100	20	60	10	60									
CCc1cc(C)cc(CC)c1C1C(=O)N2CCOCN2C1=O (centres undefined)	0	10	0	10	0	40									
CCc1cc(C)cc(CC)c1C1C(=O)N2COC(C)CN2C1=O (centres undefined)	40	60	20	90	10	100									
CCc1cc(C)cc(CC)c1C1C(=O)N2COC(CC)CN2C1=O (centres undefined)	90	100	20	90	60	100									
CCc1cc(C)cc(CC)c1C1C(=O)N2CCC(O)CCN2C1=O	100	90	40	90	80	100									
CCc1cc(C)cc(CC)c1C1C(=O)N2CCC(C)(O)CCN2C1=O	100	100	90	90	80	80									
CCc1cc(C)cc(CC)c1C1C(=O)N2CCCOCN2C1=O (centres undefined)	0	40	0	10	0	40									
CCc1cc(C)cc(CC)c1C1C(=O)N2C(C)COCC(C)N2C1=O (centres undefined)	60	40	0	80	0	50									
CCc1cc(C)cc(CC)c1C1C(=O)N2CCOC(C)CN2C1=O (centres undefined)	60	90	0	90	0	40									
CCc1cc(C)cc(CC)c1C1C(=O)N2CCOC(CC)CN2C1=O (centres undefined)	20	80	0	20	0	40									
CCc1cc(C)cc(CC)c1C1C(=O)N2CC(C)OC(C)CN2C1=O (centres undefined)	50	80	0	90	0	90									
CCc1cc(C)cc(CC)c1C1C(=O)N2C[C@H]3CC[C@@H](CN2C1=O)O3 (some centres undefined)	40	80	0	80	0	80									
CCc1cc(C)cc(CC)c1C1C(=O)N2C[C@H]3COC[C@H]3CN2C1=O (some centres undefined)	100	90	0	100	40	100									
Cc1cc(Br)c(C2C(=O)N3CCOCCN3C2=O)c(Br)c1	0	10	0	10	0	40									
Cc1cc(C)c(C2C(=O)N3CCOCCN3C2=O)c(Br)c1	0	90	0	40	0	40									
CCc1cc(C)cc(C)c1C1C(=O)N2CCOCCN2C1=O	60	60	40	60	20	80									
CCCc1cc(C)cc(C)c1C1C(=O)N2CCOCCN2C1=O	20	60	0	40	0	80									

SMILES	Activity [1] [%]	Activity [2] [%]	Activity [3] [%]	Activity [4] [%]	Activity [5] [%]	Activity [6] [%]	solubility [7] [mg/mL]	logD [8]	pKa [9]	half-life [10] [h]	logD [11]	half-life [12] [h]	solubility [13] [mg/mL]	half-life [14] [h]	half-life [15] [h]
Cc1cc(C)c(C2C(=O)N3CCOCCN3C2=O)c(C(C)C)c1	0	50	0	20	0	50									
Cc1cc(C)c(C2C(=O)N3CCOCCN3C2=O)c(C2CC2)c1	0	50	0	60	0	90									
C#Cc1cc(C)cc(C)c1C1C(=O)N2CCOCCN2C1=O	80	90	40	100	50	100									
CC#Cc1cc(C)cc(C)c1C1C(=O)N2CCOCCN2C1=O	0	60	10	40	10	40									
CCc1cc(C)c(C2C(=O)N3CCOCCN3C2=O)c(CC)c1	0	60	0	60	0	50									
C#Cc1cc(C)c(C2C(=O)N3CCOCCN3C2=O)c(CC)c1	20	10	10	20	0	20									
CCc1cccc(CC)c1C1C(=O)N2CCOCCN2C1=O	0	0	0	90	0	0									
CCc1cc(CC)c(C2C(=O)N3CCOCCN3C2=O)c(CC)c1	40	60	0	40	0	60									
CCc1cc(I)cc(CC)c1C1C(=O)N2CCOCCN2C1=O	0	0	0	0	0	0									
CCc1cc(-c2ccccc2)cc(CC)c1C1C(=O)N2CCOCCN2C1=O	90	80	80	80	80	90									
CCCc1cc(C)cc(CCC)c1C1C(=O)N2CCOCCN2C1=O	50	0	0	90	0	80									
C#Cc1cc(C)cc(CC)c1C1C(=O)N2CCOCCN2C1=O	100	100	50	100	50	100									
C#Cc1cc(C)cc(C#C)c1C1C(=O)N2CCOCCN2C1=O	80	80	20	90	20	90									
CCc1cc(C)cc(OC)c1C1C(=O)N2CCOCCN2C1=O	90	80	50	100	50	90									
C#Cc1cc(C)cc(OC)c1C1C(=O)N2CCOCCN2C1=O	20	100	0	90	0	0									
CCc1cc(-c2ccccc2)cc(OC)c1C1C(=O)N2CCOCCN2C1=O	80	90	90	90	90	100									
CCc1cc(C)cc(CC)c1C1C(=O)N2CCOCCN2C1=O [PINOXADEN DIONE]	100	90	0	90	10	100	> 300	-1.1	3.82	< 24	0.62	< 24	5.2 (≈ 16.4 mM)	< 24	< 24
